{"source": "patent US20250026721A1", "about": "“COMPOUNDS AND METHODS FOR MODULATING RAS-PI3K” (Vividion Therapeutics, Inc., priority 2023, published 2025)", "key": {"[1]": {"molecular_target": "T1, PIK3CA (Homo sapiens, UniProt P42336)", "T1 construct": "endogenous in cells; host or cells: Jurkat cell lysate", "T1 sequence (P42336 whole entry)": "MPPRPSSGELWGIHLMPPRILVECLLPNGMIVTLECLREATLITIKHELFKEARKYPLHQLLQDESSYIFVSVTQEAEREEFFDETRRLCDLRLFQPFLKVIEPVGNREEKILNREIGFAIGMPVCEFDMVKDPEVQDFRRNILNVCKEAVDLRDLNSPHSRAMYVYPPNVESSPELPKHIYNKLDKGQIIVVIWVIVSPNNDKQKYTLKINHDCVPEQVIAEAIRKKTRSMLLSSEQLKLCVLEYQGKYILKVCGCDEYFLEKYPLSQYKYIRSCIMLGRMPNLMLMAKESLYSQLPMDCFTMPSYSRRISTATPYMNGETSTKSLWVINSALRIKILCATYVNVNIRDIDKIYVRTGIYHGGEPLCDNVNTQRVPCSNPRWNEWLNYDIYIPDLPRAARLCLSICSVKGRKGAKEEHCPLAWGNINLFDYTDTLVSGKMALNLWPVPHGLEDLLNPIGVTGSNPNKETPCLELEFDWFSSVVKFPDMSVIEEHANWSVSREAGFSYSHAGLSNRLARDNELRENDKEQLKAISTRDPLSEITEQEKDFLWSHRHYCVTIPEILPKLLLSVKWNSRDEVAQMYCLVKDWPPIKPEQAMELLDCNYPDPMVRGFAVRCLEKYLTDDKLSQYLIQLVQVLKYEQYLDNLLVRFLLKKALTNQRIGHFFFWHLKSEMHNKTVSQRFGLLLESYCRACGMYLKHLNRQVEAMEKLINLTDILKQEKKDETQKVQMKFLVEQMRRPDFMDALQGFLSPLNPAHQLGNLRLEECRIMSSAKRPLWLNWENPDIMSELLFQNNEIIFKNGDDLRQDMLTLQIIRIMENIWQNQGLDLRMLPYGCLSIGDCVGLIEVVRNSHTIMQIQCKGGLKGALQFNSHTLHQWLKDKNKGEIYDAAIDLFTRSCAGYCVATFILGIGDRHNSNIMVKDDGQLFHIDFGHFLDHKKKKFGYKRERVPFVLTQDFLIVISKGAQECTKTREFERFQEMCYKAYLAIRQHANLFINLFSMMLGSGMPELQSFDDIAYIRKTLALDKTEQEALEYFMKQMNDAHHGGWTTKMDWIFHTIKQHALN", "T1 sequence (P27986 whole entry partner)": "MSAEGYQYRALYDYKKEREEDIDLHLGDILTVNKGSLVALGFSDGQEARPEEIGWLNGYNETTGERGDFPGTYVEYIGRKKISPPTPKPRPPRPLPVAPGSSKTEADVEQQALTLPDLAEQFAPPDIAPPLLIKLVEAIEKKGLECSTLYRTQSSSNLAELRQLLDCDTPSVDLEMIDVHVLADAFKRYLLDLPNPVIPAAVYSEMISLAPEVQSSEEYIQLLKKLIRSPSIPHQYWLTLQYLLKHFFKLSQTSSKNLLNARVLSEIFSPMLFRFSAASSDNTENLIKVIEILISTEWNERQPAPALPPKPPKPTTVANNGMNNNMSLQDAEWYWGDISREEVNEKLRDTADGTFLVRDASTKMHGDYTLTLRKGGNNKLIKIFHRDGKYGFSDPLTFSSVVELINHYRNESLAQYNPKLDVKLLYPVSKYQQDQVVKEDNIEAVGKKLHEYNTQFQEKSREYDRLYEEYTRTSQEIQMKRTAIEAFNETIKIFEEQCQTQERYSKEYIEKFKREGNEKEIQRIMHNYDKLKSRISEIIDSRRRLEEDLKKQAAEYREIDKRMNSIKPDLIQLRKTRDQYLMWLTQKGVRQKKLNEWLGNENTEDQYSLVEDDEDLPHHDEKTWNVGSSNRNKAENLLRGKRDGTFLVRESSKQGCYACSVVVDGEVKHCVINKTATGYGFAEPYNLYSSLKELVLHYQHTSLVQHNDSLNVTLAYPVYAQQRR", "assay": "In vitro ELISA target engagement assay for PIK3CA in Jurkat cellular lysate (competition with PIK3CA Biotin Probe)", "format": "binding", "details": "1 hour at rt, then 500 nM PIK3CA Biotin Probe, read-out: Elisa Target Engagement Assay (TE50)", "procedure,_shortened": "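Jurkat lysate from sonicated frozen cells was preincubated 1 h at rt with serially diluted compound up to 200 μM, then labelled 1 h at rt with PIK3CA biotin probe at 500 nM final. Probe-bound PIK3CA was captured on antibody-coated plates and detected with Neutravidin-HRP luminescence; TE50 derived from the dose response.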"}, "[2]": {"molecular_target": "T2, PIK3CA_C242 (Homo sapiens, UniProt P42336)", "T2 construct": "endogenous in cells; host or cells: Jurkat cell lysate", "T2 sequence (P42336 whole entry)": "as the sequence (P42336 whole entry) above", "T2 sequence (P27986 whole entry partner)": "as the sequence (P27986 whole entry partner) above", "assay": "Proteomic TE50 (IA-DTB / TMT mass spectrometry) in Jurkat cell lysate", "format": "binding", "details": "1 hour at rt, 7-point dose response", "description": "Example 4. Proteomic TE50 In vitro TE50 values for PIK3CA_C242 were obtained by treating 500 μg of cell lysate generated from Jurkat cells with DMSO or compound for 1 hour at rt followed by the addition of 200 μM desthiobiotin polyethyleneoxide iodoacetamide (IA-DTB) in DMSO for one hour at rt. Compounds were serially diluted 1:5 for a total of 7 points in order to generate dose response curves. Samples were then precipitated by the addition of 8× ice cold acetone and incubated at -80° C. for two hours. Protein was then pelleted by centrifugation (4,200 RPM, 45 min, 4° C.). The pelleted material was resuspended in 9M urea, 50 mM ammonium bicarbonate and proteins were reduced and alkylated by the addition of DTT and iodoacetamide (10 and 30 mM, respectively). Following reduction and alkylation, samples were exchanged into 2M urea (Zeba spin desalting plates, Thermo Fisher) and digested with Trypsin. IA-DTB labeled peptides were isolated with streptavidin agarose resin. Enriched peptides were eluted by the addition of 50% acetonitrile (ACN) 0.1% formic acid (FA) and dried in a SpeedVac vacuum concentrator. […] Reactions were quenched by the addition of 6.5 μL of 5% hydroxylamine. Samples were then combined and desalted on a Evolute express ABN plate (Biotage, 600-0010-PX01). Targeted TMT measurements were collected using an Orbitrap Lumos Tribrid Mass Spectrometer (Thermo Scientific) coupled to an UltiMate 3000 Series Rapid Separation LC system and autosampler (Thermo Scientific Dionex). Peptides were eluted onto a custom C18 capillary analytical column (75-μm inner diameter fused silica, packed with Acclaim PepMap C18 resin; Thermo Scientific) using an Acclaim PepMap 100 (Thermo 164535) loading column, and separated at a flow rate of […]. Data were acquired using a specific MS3-based TMT method targeting the peptide containing […], +2 charge state) where MS2 peptide fragmentation is triggered upon detection of the peptide precursor ion. Subsequent MS3 analysis was then performed using pre-selected peptide fragment ions that were isolated for fragmentation using synchronous precursor selection. RAW files were converted to MZXML format and searched with the SEQUEST algorithm using the […] software package. TMT quantitation was performed with a filter requiring at least ten summed signal-to-noise (S/N) for control channels. TE50 values were calculated from 7-point dose response curves created using the reporter ion S/N for each channel."}}, "data": [{"smiles": "CCCOc1cccc(-c2cc(Cl)ccc2S(=O)(=O)N2CCC(F)(C(=O)N[C@@H](C)/C=C\\S(C)(=O)=O)CC2)c1", "note": "[Compound 14, (S,Z)-1-((5-chloro-3′-propoxy-[1,1′-biphenyl]-2-yl)sulfonyl)-4-fluoro-N-(4-(methylsulfonyl)but-3-en-2-yl)piperidine-4-carboxamide]", "values": [{"measurement": "IC50", "setting": "[1]", "result": 0.47, "unit": "µM"}, {"measurement": "IC50", "setting": "[2]", "result": 0.33, "unit": "µM"}]}, {"smiles": "C[C@H](/C=C\\S(C)(=O)=O)NC(=O)C1(F)CCN(S(=O)(=O)c2ccc(N3CCCC3)cc2-c2ccccc2Cl)CC1", "note": "[Compound 119, (R,Z)-1-((2′-chloro-5-(pyrrolidin-1-yl)-[1,1′-biphenyl]-2-yl)sulfonyl)-4-fluoro-N-(4-(methylsulfonyl)but-3-en-2-yl)piperidine-4-carboxamide]", "values": [{"measurement": "IC50", "setting": "[1]", "result": 0.67, "unit": "µM"}, {"measurement": "IC50", "setting": "[2]", "result": 0.46, "unit": "µM"}]}, {"smiles": "C[C@@H](/C=C\\S(C)(=O)=O)NC(=O)C1(F)CCN(S(=O)(=O)c2ccc(Cl)cc2-c2cccc(OC3CCC3)c2)CC1", "note": "[Compound 263, (S,Z)-1-((5-chloro-3′-cyclobutoxy-[1,1′-biphenyl]-2-yl)sulfonyl)-4-fluoro-N-(4-(methylsulfonyl)but-3-en-2-yl)piperidine-4-carboxamide]", "values": [{"measurement": "IC50", "setting": "[1]", "result": 1, "unit": "µM"}, {"measurement": "IC50", "setting": "[2]", "result": 0.93, "unit": "µM"}]}, {"smiles": "COc1ccc(S(=O)(=O)N2CCC(F)(C(=O)N[C@@H](C)/C=C\\S(C)(=O)=O)CC2)c(-c2ccccc2)c1", "note": "[Compound 4, (S,Z)-4-fluoro-1-((5-methoxy-[1,1′-biphenyl]-2-yl)sulfonyl)-N-(4-(methylsulfonyl)but-3-en-2-yl)piperidine-4-carboxamide]", "values": [{"measurement": "IC50", "setting": "[1]", "result": 0.14, "unit": "µM"}, {"measurement": "IC50", "setting": "[2]", "result": 0.206, "unit": "µM"}]}, {"smiles": "C[C@H](/C=C\\S(C)(=O)=O)NC(=O)C1(F)CCN(S(=O)(=O)c2cnc(Br)cc2-c2ccccc2Cl)CC1", "note": "[Compound 277, (R,Z)-1-((6-bromo-4-(2-chlorophenyl)pyridin-3-yl)sulfonyl)-4-fluoro-N-(4-(methylsulfonyl)but-3-en-2yl)piperidine-4-carboxamide]", "values": [{"measurement": "IC50", "setting": "[1]", "result": 0.097, "unit": "µM"}, {"measurement": "IC50", "setting": "[2]", "result": 0.082, "unit": "µM"}]}, {"smiles": "C[C@H](/C=C\\S(C)(=O)=O)NC(=O)C1(F)CCN(S(=O)(=O)c2ccc(N3CCCC3)cc2-c2ccc(F)cc2Cl)CC1", "note": "[Compound 123, (R,Z)-1-((2′-chloro-4′-fluoro-5-(pyrrolidin-1-yl)-[1,1′-biphenyl]-2-yl)sulfonyl)-4-fluoro-N-(4-(methylsulfonyl)but-3-en-2-yl)piperidine-4-carboxamide]", "values": [{"measurement": "IC50", "setting": "[1]", "result": 0.82, "unit": "µM"}, {"measurement": "IC50", "setting": "[2]", "result": 0.063, "unit": "µM"}]}, {"smiles": "C[C@@H](/C=C\\S(C)(=O)=O)NC(=O)C1(F)CCN(S(=O)(=O)c2ccc(Cl)cc2-c2cccc(OCc3cccc(Cl)c3)c2)CC1", "note": "[Compound 266, (S,Z)-1-((5-chloro-3′-((3-chlorobenzyl)oxy)-[1,1′-biphenyl]-2-yl)sulfonyl)-4-fluoro-N-(4-(methylsulfonyl)but-3-en-2-yl)piperidine-4-carboxamide]", "values": [{"measurement": "IC50", "setting": "[1]", "result": 0.75, "unit": "µM"}, {"measurement": "IC50", "setting": "[2]", "result": 0.6, "unit": "µM"}]}, {"smiles": "C[C@H](/C=C\\S(C)(=O)=O)NC(=O)C1(F)CCN(S(=O)(=O)c2ccc(Br)cc2-c2ncccc2Cl)CC1", "note": "[Compound 204, (R,Z)-1-((4-bromo-2-(3-chloropyridin-2-yl)phenyl)sulfonyl)-4-fluoro-N-(4-(methylsulfonyl)but-3-en-2-yl)piperidine-4-carboxamide]", "values": [{"measurement": "IC50", "setting": "[1]", "result": 0.34, "unit": "µM"}, {"measurement": "IC50", "setting": "[2]", "result": 0.73, "unit": "µM"}]}, {"smiles": "COc1ccc(Cl)c(-c2cc(Cl)ncc2S(=O)(=O)N2CCC(F)(C(=O)N[C@@H](C)/C=C\\S(C)(=O)=O)CC2)c1", "note": "[Compound 271, (S,Z)-1-((6-chloro-4-(2-chloro-5-methoxyphenyl)pyridin-3-yl)sulfonyl)-4-fluoro-N-(4-(methylsulfonyl)but-3-en-2-yl)piperidine-4-carboxamide]", "values": [{"measurement": "IC50", "setting": "[1]", "result": 0.17, "unit": "µM"}, {"measurement": "IC50", "setting": "[2]", "result": 0.209, "unit": "µM"}]}, {"smiles": "CCc1ccc(S(=O)(=O)N2CCC(F)(C(=O)N[C@H](C)/C=C\\S(C)(=O)=O)CC2)c(-c2ccccc2C)c1", "note": "[Compound 113, (R,Z)-1-((5-ethyl-2′-methyl-[1,1′-biphenyl]-2-yl)sulfonyl)-4-fluoro-N-(4-(methylsulfonyl)but-3-en-2-yl)piperidine-4-carboxamide]", "values": [{"measurement": "IC50", "setting": "[2]", "result": 0.17, "unit": "µM"}]}, {"smiles": "CN(C)c1ccc(S(=O)(=O)N2CCC(F)(C(=O)NC/C=C/C#N)CC2)c(-c2ccccc2Cl)c1", "note": "[Compound 97, (E)-1-((2′-chloro-5-(dimethylamino)-[1,1′-biphenyl]-2-yl)sulfonyl)-N-(3-cyanoallyl)-4-fluoropiperidine-4-carboxamide]", "values": [{"measurement": "IC50", "setting": "[2]", "result": 0.37, "unit": "µM"}]}, {"smiles": "COc1cc(-c2ccccc2)c(S(=O)(=O)N2CCC(F)(C(=O)NC/C=C/S(C)(=O)=O)CC2)cn1", "note": "[Compound 191, (E)-4-fluoro-1-((6-methoxy-4-phenylpyridin-3-yl)sulfonyl)-N-(3-(methylsulfonyl)allyl)piperidine-4-carboxamide]", "values": [{"measurement": "IC50", "setting": "[2]", "result": 0.95, "unit": "µM"}]}, {"smiles": "COc1ccc(S(=O)(=O)N2CCC(F)(C(=O)NC/C=C/S(C)(=O)=O)CC2)c(-c2ccccc2)c1", "note": "[Compound 38, (E)-4-fluoro-1-((5-methoxy-[1,1′-biphenyl]-2-yl)sulfonyl)-N-(3-(methylsulfonyl)allyl)piperidine-4-carboxamide]", "values": [{"measurement": "IC50", "setting": "[2]", "result": 0.644, "unit": "µM"}]}, {"smiles": "COc1cc(-c2ccccc2C)c(S(=O)(=O)N2CCC(F)(C(=O)NC/C=C/S(C)(=O)=O)CC2)cn1", "note": "[Compound 189, (E)-4-fluoro-1-((6-methoxy-4-(o-tolyl)pyridin-3-yl)sulfonyl)-N-(3-(methylsulfonyl)allyl)piperidine-4-carboxamide]", "values": [{"measurement": "IC50", "setting": "[2]", "result": 0.263, "unit": "µM"}]}, {"smiles": "COc1cccc(-c2cc(C)ccc2S(=O)(=O)N2CCC(F)(C(=O)NC/C=C/S(C)(=O)=O)CC2)c1", "note": "[Compound 42, (E)-4-fluoro-1-((3′-methoxy-5-methyl-[1,1′-biphenyl]-2-yl)sulfonyl)-N-(3-(methylsulfonyl)allyl)piperidine-4-carboxamide]", "values": [{"measurement": "IC50", "setting": "[2]", "result": 0.624, "unit": "µM"}]}, {"smiles": "COc1cccc(-c2ccccc2S(=O)(=O)N2CCC(F)(C(=O)NC/C=C/S(=O)(=O)C3CCN(C)CC3)CC2)c1", "note": "[Compound 228, (E)-4-fluoro-1-((3′-methoxy-[1,1′-biphenyl]-2-yl)sulfonyl)-N-(3-((1-methylpiperidin-4-yl)sulfonyl)allyl)piperidine-4-carboxamide]", "values": [{"measurement": "IC50", "setting": "[2]", "result": 0.69, "unit": "µM"}]}, {"smiles": "CC#Cc1cccc(-c2cc(Cl)ccc2S(=O)(=O)N2CCC(F)(C(=O)NC/C=C/S(C)(=O)=O)CC2)c1", "note": "[Compound 46, (E)-1-((5-chloro-3′-(prop-1-yn-1-yl)-[1,1′-biphenyl]-2-yl)sulfonyl)-4-fluoro-N-(3-(methylsulfonyl)allyl)piperidine-4-carboxamide]", "values": [{"measurement": "IC50", "setting": "[2]", "result": 0.46, "unit": "µM"}]}, {"smiles": "C[C@H](/C=C\\S(C)(=O)=O)NC(=O)C1(F)CCN(S(=O)(=O)c2ccc(C3CN(C(=O)OC(C)(C)C)C3)cc2-c2ccccc2Cl)CC1", "note": "[Compound 99, tert-butyl (R,Z)-3-(2′-chloro-6-((4-fluoro-4-((4-(methylsulfonyl)but-3-en-2-yl)carbamoyl)piperidin-1-yl)sulfonyl)-[1,1′-biphenyl]-3-yl)azetidine-1-carboxylate]", "values": [{"measurement": "IC50", "setting": "[2]", "result": 0.83, "unit": "µM"}]}, {"smiles": "CC#Cc1ccc(S(=O)(=O)N2CCC(F)(C(=O)N[C@H](C)/C=C\\S(C)(=O)=O)CC2)c(-c2ccccc2Cl)c1", "note": "[Compound 131, (R,Z)-1-((2′-chloro-5-(prop-1-yn-1-yl)-[1,1′-biphenyl]-2-yl)sulfonyl)-4-fluoro-N-(4-(methylsulfonyl)but-3-en-2-yl)piperidine-4-carboxamide]", "values": [{"measurement": "IC50", "setting": "[2]", "result": 0.209, "unit": "µM"}]}, {"smiles": "COc1cccc(-c2cc(Cl)ccc2S(=O)(=O)N2CCC(F)(C(=O)NC/C=C/S(C)(=O)=O)CC2)c1", "note": "[Compound 36, (E)-1-((5-chloro-3′-methoxy-[1,1′-biphenyl]-2-yl)sulfonyl)-4-fluoro-N-(3-(methylsulfonyl)allyl)piperidine-4-carboxamide]", "values": [{"measurement": "IC50", "setting": "[2]", "result": 0.75, "unit": "µM"}]}, {"smiles": "C[C@H](/C=C\\S(C)(=O)=O)NC(=O)C1(F)CCN(S(=O)(=O)c2cnc(O)cc2-c2ccccc2Cl)CC1", "note": "[Compound 276, (R,Z)-1-((4-(2-chlorophenyl)-6-hydroxypyridin-3-yl)sulfonyl)-4-fluoro-N-(4-(methylsulfonyl)but-3-en-2-yl)piperidine-4-carboxamide]", "values": [{"measurement": "IC50", "setting": "[2]", "result": 0.57, "unit": "µM"}]}, {"smiles": "CN(C)c1ccc(S(=O)(=O)N2CCC(F)(C(=O)NC/C=C/S(C)(=O)=O)CC2)c(-c2ccccc2Cl)c1", "note": "[Compound 95, (E)-1-((2′-chloro-5-(dimethylamino)-[1,1′-biphenyl]-2-yl)sulfonyl)-4-fluoro-N-(3-(methylsulfonyl)allyl)piperidine-4-carboxamide]", "values": [{"measurement": "IC50", "setting": "[2]", "result": 0.1, "unit": "µM"}]}]}
